Experimental data: patent publication US11976059B2 (KOREA RESEARCH INSTITUTE OF CHEMICAL TECHNOLOGY, priority 2018, dated 2024)

Each compound was assayed against EGFR L858R/T790M/C797S mutant enzyme (Homo sapiens (Human), UniProt P00533, C797S/L858R/T790M) (assay: EGFR mutant enzyme inhibition, HTRF system (Cisbio)). Details: ATP 1 mM, 37° C. for 2 hours.
Assay type: biochemical
Description: In order to evaluate the inhibitory activity of the compound represented by formula 1 according to the present invention against EGFR mutation, the following experiment was performed.
The activity of the compound of the present invention against EGFR mutant enzyme was measured using the HTRF system of Cisbio Co. As an EGFR L858R/T790M/C797S mutant enzyme, a protein provided by SignalChem was purchased and used as an enzyme source.
The composition of the assay buffer used for the activity measurement was as follows: 50 mM Tris-HCl (pH 7.5), 100 mM NaCl, 7.5 mM MgCl2, 3 mM KCl, 0.01% Tween 20, 0.1% BSA, and 1 mM DTT. Herein, an enzyme reaction was performed using a peptide substrate labeled with ATP at the concentration of 1 mM and biotin at the concentration of 0.5 μM. The analysis of the EGFR activity inhibitory effect of the compound was performed according to the following analytical reaction recipe.
Component 1: 4 μl of EGFR mutant enzyme
Component 2: 2 μl of compound solution
Component 3: 4 μl of ATP and biotin-labeled peptide mixture
The enzyme reaction was initiated by mixing the component 1 and the component 2 first and then adding the component 3 thereto. After reacting the mixture at 37° C. for 2 hours, 10 μl of a measurement solution consisting of streptavidin-XL665 and europium-labeled anti-phosphotyrosine antibody provided by Cisbio was added to the enzyme reaction solution, followed by reaction at room temperature for 1 hour. Finally, the ratio of the fluorescence values at 615 nm and 665 nm was calculated using Envision equipment of Perkin-Elmer to quantitatively measure the enzyme activity and confirm the inhibitory ability of the compound. The values measured at 7 concentrations of the compound were analyzed using Prism program (version 5.01, Graphpad Software, Inc.), and the IC50 value, an index of the inhibitory ability of the compound, was calculated.

Chain of EGFR L858R/T790M/C797S mutant enzyme (P00533 25-1210 T790M/C797S/L858R): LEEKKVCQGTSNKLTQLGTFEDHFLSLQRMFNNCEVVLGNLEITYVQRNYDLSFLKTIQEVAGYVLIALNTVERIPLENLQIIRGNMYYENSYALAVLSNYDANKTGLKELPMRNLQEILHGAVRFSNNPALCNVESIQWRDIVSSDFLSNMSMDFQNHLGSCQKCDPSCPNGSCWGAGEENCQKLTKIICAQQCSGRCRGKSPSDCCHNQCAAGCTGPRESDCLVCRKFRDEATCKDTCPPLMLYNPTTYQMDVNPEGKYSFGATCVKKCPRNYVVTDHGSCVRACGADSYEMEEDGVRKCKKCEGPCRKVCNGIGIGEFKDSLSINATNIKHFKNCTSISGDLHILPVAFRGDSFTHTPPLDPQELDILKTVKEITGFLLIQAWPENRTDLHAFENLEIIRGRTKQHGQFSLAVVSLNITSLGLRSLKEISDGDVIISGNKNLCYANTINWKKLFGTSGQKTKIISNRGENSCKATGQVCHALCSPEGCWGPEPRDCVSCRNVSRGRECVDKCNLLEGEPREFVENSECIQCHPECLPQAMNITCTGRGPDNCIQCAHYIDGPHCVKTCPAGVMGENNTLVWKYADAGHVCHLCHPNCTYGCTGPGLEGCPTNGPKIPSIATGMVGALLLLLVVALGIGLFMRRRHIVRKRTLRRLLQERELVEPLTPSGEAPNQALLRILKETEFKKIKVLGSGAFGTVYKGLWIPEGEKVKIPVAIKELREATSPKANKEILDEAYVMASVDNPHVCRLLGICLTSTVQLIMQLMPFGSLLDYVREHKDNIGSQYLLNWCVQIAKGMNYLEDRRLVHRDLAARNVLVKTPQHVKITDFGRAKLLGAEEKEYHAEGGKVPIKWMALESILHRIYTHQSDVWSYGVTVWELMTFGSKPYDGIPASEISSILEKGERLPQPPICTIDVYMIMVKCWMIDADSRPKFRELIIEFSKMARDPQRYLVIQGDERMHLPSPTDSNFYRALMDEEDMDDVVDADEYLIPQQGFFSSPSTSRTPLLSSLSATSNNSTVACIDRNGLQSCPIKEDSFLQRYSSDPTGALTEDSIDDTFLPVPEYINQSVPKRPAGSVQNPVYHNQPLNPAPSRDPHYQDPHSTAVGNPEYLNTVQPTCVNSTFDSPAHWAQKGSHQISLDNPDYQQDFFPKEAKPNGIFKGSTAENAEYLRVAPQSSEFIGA

Structure (SMILES) | IC50
O=C1c2ccccc2CN1C(c1nc2ccccc2[nH]1)c1ccccc1O (centres unmarked) [Example 1, 2-((1H-benzo[d]imidazole-2-yl)(2-hydroxyphenyl)methyl)isoindolin-1-one] | 1 µM
O=C1c2ccccc2CN1C(c1nc2ccc(F)cc2[nH]1)c1ccccc1O (centres unmarked) [Example 2, 2-((6-fluoro-1H-benzo[d]imidazole-2-yl)(2-hydroxyphenyl)methyl)isoindolin-1-one] | 2.2 µM
O=C1c2ccccc2CN1C(c1nc2cccnc2[nH]1)c1ccccc1O (centres unmarked) [Example 3, 2-((2-hydroxyphenyl)(3H-imidazo[4,5-b]pyridine-2-yl)methyl)isoindolin-1-one] | 2.3 µM
O=C1c2ccccc2CN1C(c1nc2ccc(Cl)cc2[nH]1)c1ccccc1O (centres unmarked) [Example 4, 2-((6-chloro-1H-benzo[d]imidazole-2-yl)(2-hydroxyphenyl)methyl)isoindolin-1-one] | 4.4 µM
O=C1c2ccccc2CN1C(c1nc2cc(Cl)c(Cl)cc2[nH]1)c1ccccc1O (centres unmarked) [Example 5, 2-((5,6-dichloro-1H-benzo[d]imidazole-2-yl)(2-hydroxyphenyl)methyl)isoindolin-1-one] | 7 µM
O=C1c2ccccc2CN1C(c1nc2ccc(Cl)nc2[nH]1)c1ccccc1O (centres unmarked) [Example 6, 2-((5-chloro-3H-imidazo[4,5-b]pyridine-2-yl)(2-hydroxyphenyl)methyl)isoindolin-1-one] | > 10 µM
Nc1ccc(-c2ccc3c(c2)C(=O)N(C(c2nc4ccccc4[nH]2)c2cc(Cl)ccc2O)C3)cc1 (centres unmarked) [Example 14, 2-((1H-benzo[d]imidazole-2-yl)(5-chloro-2-hydroxyphenyl)methyl)-6-(4-aminophenyl)isoindolin-1-one] | 1.3 µM
O=C1c2cc(C3=CCNCC3)ccc2CN1C(c1nc2ccccc2[nH]1)c1ccccc1O (centres unmarked) [Example 15, 2-((1H-benzo[d]imidazole-2-yl)(2-hydroxyphenyl)methyl)-6-(1,2,3,6-tetrahydropyridine-4-yl)isoindolin-1-one] | 8.8 µM
O=C1c2cc(C3=CCNCC3)ccc2CN1C(c1nc2ccccc2[nH]1)c1cc(F)ccc1O (centres unmarked) [Example 16] | 2.9 µM
O=C1c2cc(C3=CCNCC3)ccc2CN1C(c1nc2ccccc2[nH]1)c1cc(Cl)ccc1O (centres unmarked) [Example 17] | 1.1 µM
O=C1c2ccccc2CN1[C@@H](c1cc2ccccc2[nH]1)c1ccccc1O [Example 19, (R)-2-((2-hydroxyphenyl)(1H-indole-2-yl)methyl)isoindolin-1-one] | > 10 µM
Cc1ccc(O)c([C@H](c2cc3ccccc3[nH]2)N2Cc3ccccc3C2=O)c1 [Example 20, (R)-2-((2-hydroxy-5-methylphenyl)(1H-indole-2-yl)methyl)isoindolin-1-one] | 1.6 µM
O=C1c2ccccc2CN1[C@@H](c1cc2ccccc2[nH]1)c1c(O)ccc(F)c1F [Example 21, (R)-2-((2,3-difluoro-6-hydroxyphenyl)(1H-indole-2-yl)methyl)isoindolin-1-one] | > 10 µM
O=C1c2ccccc2CN1[C@@H](c1cc2ccccc2[nH]1)c1cc(F)c(F)cc1O [Example 22, (R)-2-((4,5-difluoro-2-hydroxyphenyl)(1H-indole-2-yl)methyl)isoindolin-1-one] | > 10 µM
O=C1c2ccccc2CN1[C@@H](c1cc2ccccc2[nH]1)c1cc(F)ccc1O [Example 23, (R)-2-((5-fluoro-2-hydroxyphenyl)(1H-indole-2-yl)methyl)isoindolin-1-one] | 2.4 µM
O=C1c2ccccc2CN1[C@H](c1cc2ccccc2[nH]1)c1cc(F)ccc1O [Example 24, (S)-2-((5-fluoro-2-hydroxyphenyl)(1H-indole-2-yl)methyl)isoindolin-1-one] | 3.3 µM
O=C1c2ccccc2CN1[C@@H](c1cc2ccccc2[nH]1)c1c(O)cccc1F [Example 25, (R)-2-((2-fluoro-6-hydroxyphenyl)(1H-indole-2-yl)methyl)isoindolin-1-one] | > 10 µM
O=C1c2cc(C3=CCNCC3)ccc2CN1[C@@H](c1cc2ccccc2[nH]1)c1ccccc1O [Example 34, (R)-2-((2-hydroxyphenyl)(1H-indole-2-yl)methyl)-6-(1,2,3,6-tetrahydropyridine-4-yl)isoindolin-1-one] | 2.9 µM
O=C1c2cc(C3=CCNCC3)ccc2CN1[C@@H](c1cc2ccccc2[nH]1)c1cc(F)ccc1O [Example 35, (R)-2-((5-fluoro-2-hydroxyphenyl)(1H-indole-2-yl)methyl)-6-(1,2,3,6-tetrahydropyridine-4-yl)isoindolin-1-one] | 0.73 µM
O=C1c2cc(C3=CCNCC3)ccc2CN1[C@@H](c1cc2ccccc2[nH]1)c1cc(Cl)ccc1O [Example 36, (R)-2-((5-chloro-2-hydroxyphenyl)(1H-indole-2-yl)methyl)-6-(1,2,3,6-tetrahydropyridine-4-yl)isoindolin-1-one] | 2.4 µM
O=C1c2cc(N3CCNCC3)ccc2CN1[C@@H](c1cc2ccccc2[nH]1)c1cc(F)ccc1O [Example 37, (R)-2-((5-fluoro-2-hydroxyphenyl)(1H-indole-2-yl)methyl)-6-(piperazine-1-yl)isoindolin-1-one] | > 10 µM
CN1CCN(c2ccc3c(c2)C(=O)N([C@@H](c2cc4ccccc4[nH]2)c2cc(F)ccc2O)C3)CC1 [Example 38, (R)-2-((5-fluoro-2-hydroxyphenyl)(1H-indole-2-yl)methyl)-6-(4-methylpiperazine-1-yl)isoindolin-1-one] | 7.6 µM
O=C1c2cc(-c3ccc(N4CCOCC4)cc3)ccc2CN1C(c1nc2ccccc2[nH]1)c1cc(F)ccc1O (centres unmarked) [Example 39, 2-((1H-benzo[d]imidazole-2-yl)(5-fluoro-2-hydroxyphenyl)methyl)-6-(4-morpholinophenyl)isoindolin-1-one] | 0.96 µM

The next compounds have a lower IC50 than those just listed; values first:

IC50 | Structure (SMILES)
0.7 µM | O=C1c2ccccc2CN1C(c1nc2ccccc2[nH]1)c1cc(F)ccc1O (centres unmarked) [Example 7, 2-((1H-benzo[d]imidazole-2-yl)(5-fluoro-2-hydroxyphenyl)methyl)isoindolin-1-one]
0.17 µM | O=C1c2ccccc2CN1C(c1nc2ccccc2[nH]1)c1cc(Cl)ccc1O (centres unmarked) [Example 8, 2-((1H-benzo[d]imidazole-2-yl)(5-chloro-2-hydroxyphenyl)methyl)isoindolin-1-one]
0.099 µM | O=C1c2cc(-c3ccc(N4CCNCC4)cc3)ccc2CN1C(c1nc2ccccc2[nH]1)c1cc(F)ccc1O (centres unmarked) [Example 10, 2-((1H-benzo[d]imidazole-2-yl)(5-fluoro-2-hydroxyphenyl)methyl)-6-(4-(piperazine-1-yl)phenyl)isoindolin-1-one]
0.15 µM | O=C1c2cc(-c3ccc(N4CCNCC4)cc3)ccc2CN1C(c1nc2ccccc2[nH]1)c1cc(Cl)ccc1O (centres unmarked) [Example 11, 2-((1H-benzo[d]imidazole-2-yl)(5-chloro-2-hydroxyphenyl)methyl)-6-(4-(piperazine-1-yl)phenyl)isoindolin-1-one]
0.5 µM | Nc1ccc(-c2ccc3c(c2)C(=O)N(C(c2nc4ccccc4[nH]2)c2ccccc2O)C3)cc1 (centres unmarked) [Example 12, 2-((1H-benzo[d]imidazole-2-yl)(2-hydroxyphenyl)methyl)-6-(4-aminophenyl)isoindolin-1-one]
0.13 µM | CN1CCN(c2ccc(-c3ccc4c(c3)C(=O)N(C(c3nc5ccccc5[nH]3)c3cc(F)ccc3O)C4)cc2)CC1 (centres unmarked) [Example 18, 2-((1H-benzo[d]imidazole-2-yl)(5-fluoro-2-hydroxyphenyl)methyl)-6-(4-(4-methylpiperazine-1-yl)phenyl)isoindolin-1-one]
0.19 µM | O=C1c2ccccc2CN1[C@@H](c1cc2ccccc2[nH]1)c1cc(Cl)ccc1O [Example 26, (R)-2-((5-chloro-2-hydroxyphenyl)(1H-indole-2-yl)methyl)isoindolin-1-one]
0.28 µM | O=C1c2ccccc2CN1[C@H](c1cc2cccnc2[nH]1)c1cc(F)ccc1O [Example 27, (S)-2-((5-fluoro-2-hydroxyphenyl)(1H-pyrrolo[2,3-b]pyridine-2-yl)methyl)isoindolin-1-one]
0.16 µM | Nc1ccc(-c2ccc3c(c2)C(=O)N([C@@H](c2cc4ccccc4[nH]2)c2ccccc2O)C3)cc1 [Example 28, (R)-6-(4-aminophenyl)-2-((2-hydroxyphenyl)(1H-indole-2-yl)methyl)isoindolin-1-one]
0.28 µM | Nc1ccc(-c2ccc3c(c2)C(=O)N([C@@H](c2cc4ccccc4[nH]2)c2cc(F)ccc2O)C3)cc1 [Example 29, (R)-6-(4-aminophenyl)-2-((5-fluoro-2-hydroxyphenyl)(1H-indole-2-yl)methyl)isoindolin-1-one]
0.12 µM | Nc1ccc(-c2ccc3c(c2)C(=O)N([C@@H](c2cc4ccccc4[nH]2)c2cc(Cl)ccc2O)C3)cc1 [Example 30, (R)-6-(4-aminophenyl)-2-((5-chloro-2-hydroxyphenyl)(1H-indole-2-yl)methyl)isoindolin-1-one]
0.018 µM | O=C1c2cc(-c3ccc(N4CCNCC4)cc3)ccc2CN1[C@@H](c1cc2ccccc2[nH]1)c1ccccc1O [Example 31, (R)-2-((2-hydroxyphenyl)(1H-indole-2-yl)methyl)-6-(4-(piperazine-1-yl)phenyl)isoindolin-1-one]
